Measurements taken from US6534486B1, “2-(purin-9-yl)-Tetrahydrofuran-3,4-diol derivatives” (SmithKline Beecham Corporation, priority 1998, dated 2003).

How the values were obtained:
Type in all cases: cell-based
Settings in all cases: ratio of EC50 to that of NECA, CHO cells transfected with human receptor, SPAP readout
[1] = biological target: T1, human adenosine 3 receptor (Homo sapiens, UniProt P0DMS8); assay: Agonist activity at adenosine 3 receptor, CHO cells with CRE-SPAP reporter (forskolin-enhanced cAMP)
T1 sequence (P0DMS8 1-318): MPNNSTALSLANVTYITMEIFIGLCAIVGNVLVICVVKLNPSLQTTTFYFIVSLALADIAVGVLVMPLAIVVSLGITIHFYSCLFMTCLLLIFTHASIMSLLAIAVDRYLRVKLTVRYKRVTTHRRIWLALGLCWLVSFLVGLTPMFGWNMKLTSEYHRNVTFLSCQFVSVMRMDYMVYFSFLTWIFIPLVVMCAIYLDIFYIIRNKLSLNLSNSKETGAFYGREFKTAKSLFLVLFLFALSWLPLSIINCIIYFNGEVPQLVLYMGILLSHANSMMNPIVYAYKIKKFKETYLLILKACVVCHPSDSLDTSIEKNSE
Description: (§1) (1) Agonist activity against adenosine 2a, adenosine 1 and adenosine 3 receptor subtypes.
(§2) Agonist selectivity of compounds against other human adenosine receptors was determined using Chinese hamster ovary (CHO) cells transfected with the gene for the relevant human adenosine receptor following a method based on that of Castanon and Spevak, 1994. The CHO cells were also transfected with cyclic AMP response elements promoting the gene for secreted placental alkaline phosphatase (SPAP) (Wood, 1995). The effect of test compounds was determined by their effects on basal levels of cAMP (A2a) or on forskolin-enhanced cAMP (A1 and A3) as reflected by changes in levels of SPAP. EC50 values for compounds were then determined as a ratio to that of the non-selective agonist N-ethyl carboxamide adenosine (NECA).

[2] = biological target: T2, human adenosine 1 receptor (Homo sapiens, UniProt P30542); assay: Agonist activity at adenosine 1 receptor, CHO cells with CRE-SPAP reporter (forskolin-enhanced cAMP)
T2 sequence (P30542 1-326): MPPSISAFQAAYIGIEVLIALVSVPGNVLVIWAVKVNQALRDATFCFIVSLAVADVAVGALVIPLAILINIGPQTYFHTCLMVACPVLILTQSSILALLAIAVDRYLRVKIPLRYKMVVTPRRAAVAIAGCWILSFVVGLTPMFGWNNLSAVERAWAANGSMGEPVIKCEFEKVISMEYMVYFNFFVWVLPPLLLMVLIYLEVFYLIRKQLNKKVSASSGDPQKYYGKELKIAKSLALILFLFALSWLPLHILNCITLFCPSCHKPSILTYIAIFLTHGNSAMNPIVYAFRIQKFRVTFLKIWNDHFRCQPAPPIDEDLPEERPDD
Description: as §1, §2

[3] = biological target: human adenosine 2a receptor (Homo sapiens, UniProt P29274); assay: Agonist activity at adenosine 2a receptor, CHO cells with CRE-SPAP reporter (basal cAMP)
Description: as §1, §2

Sequence of human adenosine 2a receptor (P29274 whole entry): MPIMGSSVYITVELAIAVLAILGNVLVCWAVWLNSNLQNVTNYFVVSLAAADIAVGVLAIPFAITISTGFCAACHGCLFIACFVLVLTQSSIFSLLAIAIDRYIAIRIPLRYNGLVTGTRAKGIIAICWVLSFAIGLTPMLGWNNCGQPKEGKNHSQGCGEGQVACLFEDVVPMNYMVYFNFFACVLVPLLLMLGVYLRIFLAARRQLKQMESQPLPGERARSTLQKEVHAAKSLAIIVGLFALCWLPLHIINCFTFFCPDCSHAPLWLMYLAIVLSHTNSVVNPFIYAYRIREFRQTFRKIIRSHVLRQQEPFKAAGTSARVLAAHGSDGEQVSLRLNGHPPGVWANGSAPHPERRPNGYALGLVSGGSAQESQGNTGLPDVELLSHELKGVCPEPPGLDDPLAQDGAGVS

Row | SMILES | A3, EC50 values as a ratio of that of NECA [1] | A1, EC50 values as a ratio of that of NECA [2] | A2a, EC50 values as a ratio of that of NECA [3]
1 | N[C@H]1CC[C@H](Nc2nc(NCC(c3ccccc3)c3ccccc3)c3ncn([C@@H]4O[C@H](Cn5nccn5)[C@@H](O)[C@H]4O)c3n2)CC1.O=CO [Example 1, (2R,3R,4S, 5R)-2-[2-(trans-4-Amino-cyclohexylamino)6-(2,2-diphenyl-ethylamino)-purin-9-yl]-5-[1,2,3]triazol-2-ylmethyl-tetrahydro-furan-3,4-diol formate] | >656 | >=3969 | 17.1
2 | OC1C(Cn2cncn2)OC(n2cnc3c(NCC(c4ccccc4)c4ccccc4)nc(NC4CCNC4)nc32)C1O [Example 2, (2R,3R,4S,5R)-2-[6-(2,2-Diphenyl-ethylamino)-2-(pyrrolidin-3R-ylamino)-purin-9-yl]-5-[1,2,4]triazol-1-ylmethyl-tetrahydro-furan-3,4-diol diformate] | >152 | >8479 | 14.4
3 | Cn1cnc(CCNc2nc(NCC(c3ccccc3)c3ccccc3)c3ncn(C4OC(Cn5nccn5)C(O)C4O)c3n2)c1 [Example 3, (2R,3R,4S,5R)-2-{6-(2,2-Diphenyl-ethylamino)-2-[2-(1-methyl-1-H-imidazol-4-yl)-ethylamino]-purin-9-yl}-5-[1,2,3]triazol-2-ylmethyl-tetrahydro-furan-3,4-diol diformate] | >147 | 3038.8 | 1.31
4 | O=CO.O[C@@H]1[C@H](O)[C@@H](Cn2nccn2)O[C@H]1n1cnc2c(NCC(c3ccccc3)c3ccccc3)nc(NCCN3CCOCC3)nc21 [Example 4, (2R,3R,4S,5R)-2-[6-(2,2-Diphenyl-ethylamino)-2-(2-morpholin-4-yl-ethylamino)-purin-9-yl]-5-[1,2,3]triazol-2-ylmethyl-tetrahydro-furan-3,4-diol formate] | >174 | 1014 | 16.9
5 | Cn1cnc(CCNc2nc(NCC(c3ccccc3)c3ccccc3)c3ncn([C@@H]4O[C@H](CN5C(=O)CNC5=O)[C@@H](O)[C@H]4O)c3n2)c1.O=CO.O=CO [Example 5, 3-(5R-{6-(2,2-Diphenyl-ethylamino)-2-[2-(1-methyl-1-H-imidazol-4-yl)-ethylamino]-purin-9-yl}3S,4R-dihydroxy-tetrahydro-furan-2R-ylmethyl)-imidazolidine-2,4-dione diformate] | >270 | 8479 | 13.46
6 | OC1CCCC1Nc1nc(NCC(c2ccccc2)c2ccccc2)c2ncn(C3OC(Cn4cncn4)C(O)C3O)c2n1 [Example 6, (2R,3R,4S,5R)-2-[6-(2,2-Diphenyl-ethylamino)-2-(2R-hydroxy-cyclopent-(R)-ylamino)-purin-9-yl]-5-[1,2,4]triazol-1-ylmethyl-tetrahydro-furan-3,4-diol format] | >274 | >=3397 | 23.7
